Assays:
[1] = test system: A549 lung tumor; test: SC xenograft in mice; type: in vivo, human
Description: (§1) Cell lines were grown in appropriate medium (see Appendix 1). Cells were harvested at or near confluency with 0.05% Trypsin-EDTA and pelleted at 450×g for 10 min. Pellets were resuspended in sterile PBS or media (without FBS) to a particular concentration and the cells were implanted into the hindflank of mice. Tumor growth was measured over 3 to 6 weeks using venier calipers. Tumor volumes were calculated as a product of length×width×height unless otherwise indicated. P values were calculated using the Students' t-test.

[2] = test system: Calu-6 lung tumor; test: SC xenograft in mice; type: in vivo, human; details: nu/nu, 20 mg/kg/day, day 28
Description: as §1

[3] = test system: MCF7 mammary tumor; test: SC xenograft in mice; type: in vivo, human
Description: as §1

[4] = test system: PA-1 ovarian tumor; test: SC xenograft in mice; type: in vivo, human; details: nu/nu, 20 mg/kg/day, day 36
Description: as §1

[5] = test system: SF763T glioma; test: SC xenograft in mice; type: in vivo, human
Description: as §1

[6] = test system: U118T glioma; test: SC xenograft in mice; type: in vivo, human; details: nu/nu, 15 mg/kg/day, day 47
Description: as §1

[7] = test system: A375 melanoma; test: SC xenograft in mice; type: in vivo, human
Description: as §1
(§2) The mice were treated for three week.

[8] = test system: PC-3 prostate tumor; test: SC xenograft in mice; type: in vivo, human; details: SCID
Description: as §1, §2

[9] = Effects of A10 on mortality (mice implanted with C6 cells); type: in vivo, mouse; details: mouse, in vivo, ip
Description: as §1

[10] = test system: mice implanted with C6 cells; test: as above; type: in vivo, mouse
Description: as §1

[11] = test system: spleen cells; test: Normal immune function in naive mice; type: in vivo, mouse
Description: At the indicated times, animals were sacrificed, and the spleens were aseptically removed and placed into sterile medium. Spleens were processed into single cell suspensions by grinding between sterile frosted glass microscope slides. After a single wash to remove tissue debris, the spleen cells were resuspended in a hypotonic ammonium chloride buffer to lyse erythrocytes. Lymphocytes were washed and resuspended to the appropriate concentrations in complete medium, consisting of RPMI plus 10% heat-inactivated FBS, 2 mM glutamine, 50 μM β-mercaptoethanol, and penicillin-streptomycin. The responses of the lymphocytes were examined in the following assays according to accepted procedures (Current Protocols in Immunology. Coligan, J. E., Kruisbeek, A. M., Margulies, D. H., Shevach, E. M., Strober, W. (eds.) John Wiley and Sons, Inc., 1992).
The T-cell mitogen, ConA, and the T-cell independent B-cell mitogen, LPS, were added to 96-well round-bottom wells at the indicated concentrations. Lymphocytes from normal, vehicle-dosed, and drug-dosed animals were added at a final concentration of 2.5×10^5 /well. Cultures were usually set up in triplicate or quadruplicate. The plates were incubated at 37° C. in a humidified atmosphere containing 5% CO2 for the indicated times. Supernatants (approximately 100 μL) were carefully removed from the wells and stored at -80° C. for lymphokine and immunoglobulin analyses. To measure proliferation of the lymphocytes, 1 μCi of ^3 H-thymidine was added to each well, and the plates were incubated for 6 hr. The cultures were harvested onto glass fiber filters, and the incorporated radioactivity was quantitated by liquid scintillation counting (Betaplate, Wallac).
Lymphocytes from normal, vehicle-dosed, and drug-dosed animals were plated at 2.5×10^5 /well in round-bottom 96-well plates. Stimulator cells were then added at the same cell concentration. The stimulator cells consisted of syngeneic or allogeneic lymphocytes which had been treated with 50 μg/mL of mitomycin C for 30 min prior to the assay. The plates were incubated for 3 to 4 days, at which time supernatants were harvested and the cultures were pulsed as described for the mitogen assays.
Supernatants from mitogen and MLR cultures were assayed for IL-2 and IL-6 content by the ability to support the growth of factor-dependent cell lines. HT-2 cells (10^4 /well, IL-2-dependent) and 7TD1 cells (2×10^3 /well, IL-6-dependent) were plated in 96-well flat-bottom plates, in 50 μL/well. Supernatants were added in 50 μL/well, and the plates were incubated overnight (HT-2) or four days (7TD1). Cellular proliferation was determined in the MTT colorimetric assay (Appendix 3.1).
Flat bottom 96-well EIA plates were coated with goat anti-mouse Ig antibodies (Southern Biotechnology) overnight at 4° C. The plates were blocked by the addition of PBS+1% BSA. After washing with PBS, supernatants from murine mitogen and MLR cultures were added and incubated at room temperature for 1 hr. The plates were washed with PBS, then HRP-labeled goat anti-mouse Ig antibodies were added and incubated at room temperature for 1 hr. The plates were washed and developed by the addition of substrate (ABTS).
The animals were sacrificed and their spleen cells were assayed in vitro for responses to ConA (a T-cell mitogen), LPS (a T-cell independent B-cell mitogen), and alloantigens (C3H/HeJ spleen cells) as described in Appendix 5. The IL-2, IL-6, Ig content and cellular proliferation were measured after 48 hr (mitogens) or 72 hr (alloantigens).

With `Cc1oncc1C(=O)Nc1ccc(C(F)(F)F)cc1` [Compound A10, 5-methylisoxazole-4 carboxylic acid-(4-trifluromethyl)-anilide] the “growth of xenograft” value ([1]; 12 to 20 mg/kg/day) was “failed to significantly inhibit the growth”, the “% Inhibition” value ([1]; SCID, 15 mg/kg/day, day 48, treatment from day 29) was 19% and the “% Inhibition” value [2] was 64%. For the same compound, the “growth of xenograft” value ([3]; 12 to 20 mg/kg/day) was “failed to significantly inhibit the growth”, the “% Inhibition” value ([3]; SCID, 15 mg/kg/day, day 27, treatment from day 8) was 8% and the “% Inhibition” value [4] was 53%. The “% Inhibition” value ([5]; 20 mg/kg) was 89%, the “% Inhibition” value ([5]; nu/nu, 20 mg/kg/day, day 22) was 85% and the “In Vivo inhibition” value ([5]; xenografted athymic mice) was 89%. For the same compound, the “% Inhibition” value [6] was 57%, the tumor growth inhibition ([7]; 15 mg/kg/day, five days per week, from day 9, after three weeks) was “about 40%” and the “% Inhibition” value ([7]; SCID, 15 mg/kg/day, day 31, treatment from day 9) was 35%. For the same compound, the “% Inhibition” value ([7]; nu/nu, 20 mg/kg/day, day 31) was 53%, the tumor growth inhibition ([8]; 12 mg/kg/day (PBTE:D5W), five days per week, from day 15, after three weeks) was “about 50%” and the “% Inhibition” value ([8]; 12 mg/kg/day, day 36, treatment from day 15) was 47%. The mortality ([9]; 25 mg/kg/day (PBTE:D5W), 67 treatments, n 8) was 0%, the mortality ([9]; 30 mg/kg/day (PBTE), 48 treatments, n 4) was 50% and the mortality ([9]; 40 mg/kg/day (PBTE), 48 treatments, n 4) was 75%. The mortality ([10]; 20 mg/kg/day (DMSO), 21 treatments, n 26) was 54%, the mortality ([10]; 20 mg/kg/day (PBTE), 20-48 treatments, n 12) was 8% and the “mortality rate by formulation” value ([10]; PBTE:D5W compared to DMSO and PBTE) was “significantly reduced the mortality rate compared to DMSO formulations, and PBTE formulations”. For the same compound, the 3H-thymidine uptake ([11]; Allo, d7, vs vehicle) was 0, the IL-2 production ([11]; Allo, d7, vs vehicle) was 0 and the IL-6 production ([11]; Allo, d7, vs vehicle) was 0. The Ig production ([11]; Allo, d7, vs vehicle) was 0, the 3H-thymidine uptake ([11]; Allo, d21, vs vehicle) was 0 and the IL-2 production ([11]; Allo, d21, vs vehicle) was 0. It also gave an IL-6 production ([11]; Allo, d21, vs vehicle) of 0, an Ig production ([11]; Allo, d21, vs vehicle) of 0 and a 3H-thymidine uptake ([11]; ConA, d7, vs vehicle) of 0. For the same compound, the IL-2 production ([11]; ConA, d7, vs vehicle) was 0, the IL-6 production ([11]; ConA, d7, vs vehicle) was “++” and the Ig production ([11]; ConA, d7, vs vehicle) was 0. For the same compound, the 3H-thymidine uptake ([11]; ConA, d21, vs vehicle) was 0, the IL-2 production ([11]; ConA, d21, vs vehicle) was 0 and the IL-6 production ([11]; ConA, d21, vs vehicle) was 0. It also gave an Ig production ([11]; ConA, d21, vs vehicle) of 0, a 3H-thymidine uptake ([11]; LPS, d7, vs vehicle) of 0 and an IL-2 production ([11]; LPS, d7, vs vehicle) of 0. For the same compound, the IL-6 production ([11]; LPS, d7, vs vehicle) was 0, the Ig production ([11]; LPS, d7, vs vehicle) was “+” and the 3H-thymidine uptake ([11]; LPS, d21, vs vehicle) was 0. For the same compound, the IL-2 production ([11]; LPS, d21, vs vehicle) was 0, the IL-6 production ([11]; LPS, d21, vs vehicle) was 0 and the Ig production ([11]; LPS, d21, vs vehicle) was “+/-”.

Source: patent US6331555A, “Treatment of platelet derived growth factor related disorders such as cancers” (priority 1999, dated 2001)
